Measurements as given in patent US20080103151A9, “Heterocyclic compounds and their uses as therapeutic agents” (Xenon Pharmaceuticals Inc., priority 2005, published 2008).

How the values were obtained:
[1] = Stability of the isolated solid in the air; format: physicochemical; conditions: white solid, turned to red in the air
Procedure: A mixture of 3-hydroxy-3-(6-hydroxy-1,3-benzodioxol-5-yl)-1-pentyl-1,3-dihydro-2H-pyrrolo[3,2-c]pyridin-2-one (0.15 g, 0.42 mmol), triethylsilane (1.60 mL, 10.0 mmol) and trifluroacetic acid (0.74 mL, 10.0 mmol) was stirred at ambient temperature overnight. The mixture was diluted with ethyl acetate (100 mL), washed with water, dried over anhydrous sodium sulfate and filtered. The filtrate was concentrated in vacuo. The residue was triturated with diethyl ether to give the title compound as a white solid (not stable, turned to red in the air): MS (ES+) m/z 341.4 (M+1).

[2] = target: Nav1.4 (CHO-K1 cells) (Cricetulus griseus, UniProt A0A9J7H6F9); format: cell-based, Chinese Hamster
[3] = test system: Nav1.4 and 1.5 (L6 rat myoblast cell); format: cell-based
[4] = target: NaV1.8 (SK-N-BE2C neuroblastoma cell line) (Homo sapiens, UniProt Q9Y5Y9); format: cell-based
[5] = target: Nav1.2 (PC12 pheochromocytoma) (Rattus norvegicus, UniProt P04775)

NaV1.8 (SK-N-BE2C neuroblastoma cell line), sequence (Q9Y5Y9 whole entry, looked up): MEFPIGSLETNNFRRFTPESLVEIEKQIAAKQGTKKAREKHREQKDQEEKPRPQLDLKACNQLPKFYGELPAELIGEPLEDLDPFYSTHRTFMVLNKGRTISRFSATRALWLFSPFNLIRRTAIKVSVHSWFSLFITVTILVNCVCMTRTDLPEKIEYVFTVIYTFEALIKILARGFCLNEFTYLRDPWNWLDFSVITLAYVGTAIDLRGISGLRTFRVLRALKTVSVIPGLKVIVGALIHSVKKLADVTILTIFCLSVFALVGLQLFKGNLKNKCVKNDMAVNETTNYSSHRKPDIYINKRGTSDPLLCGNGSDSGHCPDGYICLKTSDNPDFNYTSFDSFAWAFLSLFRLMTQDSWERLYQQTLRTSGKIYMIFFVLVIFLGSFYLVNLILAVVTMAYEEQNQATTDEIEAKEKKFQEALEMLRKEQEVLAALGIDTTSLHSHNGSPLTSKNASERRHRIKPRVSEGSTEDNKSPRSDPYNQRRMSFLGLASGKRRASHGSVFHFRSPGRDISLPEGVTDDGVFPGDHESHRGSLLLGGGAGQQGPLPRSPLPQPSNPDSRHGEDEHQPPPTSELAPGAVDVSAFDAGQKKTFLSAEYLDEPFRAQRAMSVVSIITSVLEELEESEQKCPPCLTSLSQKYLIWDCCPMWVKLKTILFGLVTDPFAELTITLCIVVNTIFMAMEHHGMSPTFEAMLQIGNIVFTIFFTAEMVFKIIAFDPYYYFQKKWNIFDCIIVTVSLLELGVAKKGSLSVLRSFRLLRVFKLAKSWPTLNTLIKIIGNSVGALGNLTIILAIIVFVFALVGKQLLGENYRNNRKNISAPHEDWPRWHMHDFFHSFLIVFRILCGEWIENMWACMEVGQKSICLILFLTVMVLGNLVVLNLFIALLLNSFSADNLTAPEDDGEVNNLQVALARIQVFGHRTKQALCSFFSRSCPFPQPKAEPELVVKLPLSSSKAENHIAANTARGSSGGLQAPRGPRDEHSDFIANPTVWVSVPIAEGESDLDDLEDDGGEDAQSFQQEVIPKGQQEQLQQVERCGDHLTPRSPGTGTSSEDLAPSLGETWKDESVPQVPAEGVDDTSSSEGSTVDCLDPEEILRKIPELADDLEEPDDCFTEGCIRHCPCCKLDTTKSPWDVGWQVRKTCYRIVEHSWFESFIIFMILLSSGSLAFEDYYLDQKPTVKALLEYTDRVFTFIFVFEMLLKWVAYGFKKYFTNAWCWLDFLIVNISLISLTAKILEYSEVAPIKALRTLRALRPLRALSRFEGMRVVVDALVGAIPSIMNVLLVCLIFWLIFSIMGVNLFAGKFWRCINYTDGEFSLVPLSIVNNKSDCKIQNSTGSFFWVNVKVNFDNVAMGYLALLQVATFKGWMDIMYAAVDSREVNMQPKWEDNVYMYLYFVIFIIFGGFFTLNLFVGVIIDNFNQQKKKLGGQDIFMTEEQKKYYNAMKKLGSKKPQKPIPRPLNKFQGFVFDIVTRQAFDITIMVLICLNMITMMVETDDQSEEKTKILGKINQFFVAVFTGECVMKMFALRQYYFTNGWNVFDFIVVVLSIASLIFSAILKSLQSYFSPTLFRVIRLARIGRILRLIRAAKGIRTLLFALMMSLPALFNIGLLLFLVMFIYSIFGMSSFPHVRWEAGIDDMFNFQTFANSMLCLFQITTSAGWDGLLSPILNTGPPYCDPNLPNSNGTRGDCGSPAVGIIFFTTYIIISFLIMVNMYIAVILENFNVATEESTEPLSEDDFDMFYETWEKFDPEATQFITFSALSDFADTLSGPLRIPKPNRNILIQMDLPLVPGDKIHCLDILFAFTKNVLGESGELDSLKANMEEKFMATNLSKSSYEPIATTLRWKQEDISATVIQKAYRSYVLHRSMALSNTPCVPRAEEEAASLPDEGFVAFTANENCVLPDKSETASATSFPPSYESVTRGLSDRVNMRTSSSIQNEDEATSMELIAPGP
Nav1.4 (CHO-K1 cells), sequence (A0A9J7H6F9 1-1930): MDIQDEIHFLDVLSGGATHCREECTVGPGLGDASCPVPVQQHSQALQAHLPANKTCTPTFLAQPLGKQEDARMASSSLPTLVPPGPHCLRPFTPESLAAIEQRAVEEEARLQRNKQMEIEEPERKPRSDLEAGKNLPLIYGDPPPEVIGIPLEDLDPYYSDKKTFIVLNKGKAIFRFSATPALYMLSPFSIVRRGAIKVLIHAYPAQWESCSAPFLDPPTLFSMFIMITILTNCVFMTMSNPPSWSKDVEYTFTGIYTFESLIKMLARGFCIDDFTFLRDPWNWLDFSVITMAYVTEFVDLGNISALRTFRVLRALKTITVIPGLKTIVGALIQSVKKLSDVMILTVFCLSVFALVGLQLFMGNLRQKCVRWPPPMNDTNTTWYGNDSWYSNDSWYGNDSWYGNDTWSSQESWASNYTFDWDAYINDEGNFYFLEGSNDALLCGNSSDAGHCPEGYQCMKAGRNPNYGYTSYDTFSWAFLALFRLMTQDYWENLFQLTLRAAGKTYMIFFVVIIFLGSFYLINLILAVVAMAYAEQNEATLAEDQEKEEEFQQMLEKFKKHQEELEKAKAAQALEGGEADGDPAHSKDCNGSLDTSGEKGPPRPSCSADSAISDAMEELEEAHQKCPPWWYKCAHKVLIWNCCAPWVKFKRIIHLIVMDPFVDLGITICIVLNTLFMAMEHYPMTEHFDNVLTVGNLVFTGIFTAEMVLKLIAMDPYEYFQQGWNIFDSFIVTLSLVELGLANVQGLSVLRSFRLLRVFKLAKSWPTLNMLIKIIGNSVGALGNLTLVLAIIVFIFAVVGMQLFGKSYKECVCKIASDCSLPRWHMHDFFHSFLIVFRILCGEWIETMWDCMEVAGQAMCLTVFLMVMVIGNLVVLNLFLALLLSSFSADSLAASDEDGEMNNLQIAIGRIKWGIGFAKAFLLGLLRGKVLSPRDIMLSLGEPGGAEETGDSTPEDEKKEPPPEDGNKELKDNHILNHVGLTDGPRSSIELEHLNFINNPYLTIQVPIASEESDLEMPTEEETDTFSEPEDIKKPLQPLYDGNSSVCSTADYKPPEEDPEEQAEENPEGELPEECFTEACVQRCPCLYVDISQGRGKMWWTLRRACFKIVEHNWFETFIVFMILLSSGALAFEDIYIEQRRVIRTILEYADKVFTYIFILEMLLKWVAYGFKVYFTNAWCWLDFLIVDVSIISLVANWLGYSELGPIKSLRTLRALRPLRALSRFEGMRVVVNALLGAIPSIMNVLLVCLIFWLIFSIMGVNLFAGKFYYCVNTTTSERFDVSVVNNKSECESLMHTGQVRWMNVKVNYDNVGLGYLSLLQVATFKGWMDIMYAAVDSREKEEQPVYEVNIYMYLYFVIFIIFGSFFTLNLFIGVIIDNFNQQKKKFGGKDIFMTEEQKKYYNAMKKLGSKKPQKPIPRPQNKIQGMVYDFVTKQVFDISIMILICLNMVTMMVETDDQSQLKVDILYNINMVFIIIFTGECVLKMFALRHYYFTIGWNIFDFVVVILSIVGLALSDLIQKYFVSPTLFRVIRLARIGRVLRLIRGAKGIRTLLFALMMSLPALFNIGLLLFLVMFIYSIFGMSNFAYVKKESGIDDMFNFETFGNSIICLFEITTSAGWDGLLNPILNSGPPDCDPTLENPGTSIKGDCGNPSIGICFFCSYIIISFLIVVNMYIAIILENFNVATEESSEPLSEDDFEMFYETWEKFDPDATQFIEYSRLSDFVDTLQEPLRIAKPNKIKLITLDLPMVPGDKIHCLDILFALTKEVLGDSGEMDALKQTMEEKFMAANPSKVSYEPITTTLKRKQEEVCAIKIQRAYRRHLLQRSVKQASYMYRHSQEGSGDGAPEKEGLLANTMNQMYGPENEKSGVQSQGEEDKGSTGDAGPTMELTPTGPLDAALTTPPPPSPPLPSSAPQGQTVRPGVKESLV

CCCCCN1C(=O)C(O)(c2ccc3c(c2)OCO3)c2cccnc21 (centres unmarked)
melting point: 104 to 105 °C

CCCCCN1C(=O)C(O)(c2cc3c(cc2O)OCO3)c2cnccc21 (centres unmarked)
melting point: 193 to 195 °C

CCCCCN1C(=O)C(c2cc3c(cc2O)OCO3)c2cnccc21 (centres unmarked) [Example 10, 3-(6-hydroxy-1,3-benzodioxol-5-yl)-1-pentyl-1,3-dihydro-2H-pyrrolo[3,2-c]pyridin-2-one]
stability of the solid in the air [1]: not stable

NC1=N[C@H](O)[C@H]2[C@H]3O[C@]4(O)O[C@@H]([C@@H](O)[C@@]2(N1)[C@@H]4O)[C@]3(O)CO [TTX, tetrodotoxin]
block of [^14C] Guanidine influx by TTX [2]: Guanidine influx was completely
block of [^14C] Guanidine influx by TTX [3]: partially blocked by TTX (Nav1.5
block of [^14C] Guanidine influx by TTX [4]: TTX partially blocked influx
block of [^14C] Guanidine influx by TTX [5]: Guanidine influx was completely

CCCCCN1C(=O)C(c2ccc3c(c2)OCO3)c2cccnc21 (centres unmarked) [Example 17, 3-(1,3-benzodioxol-5-yl)-1-pentyl-1,3-dihydro-2H-pyrrolo[2,3-b]pyridin-2-one]
melting point: 75 to 77 °C
